From a melting point compilation (Tetko et al.; mined from patent text by program, amines drawn as free bases though some values may be those of a salt)

For `COC(=O)C(Oc1ccc(Cl)c2c1CCCC2)c1ccc(Oc2ccc(Cl)cc2)cc1` (centres undefined), the melting point was 87.5 to 90 °C. `COC(=O)c1cc(-c2nc(COc3ccc(COc4nn(-c5ccccc5)cc4C=O)cc3OC)c(C)o2)ccc1C` showed a melting point of 195 to 196 °C. In the case of `CS(=O)(=O)c1ccc(-c2cnn(Cc3cc4ccccc4s3)c(=O)c2-c2ccc(F)cc2)cc1`, the melting point is reported as 93 to 96 °C. In the case of `COc1ccc(C(=O)O)c2cccc(S(=O)(=O)N(C)C)c12`, the melting point is reported as 220 to 221 °C. `O=C(CBr)c1cc(-c2cccc(C(F)(F)F)c2)nc(C(F)(F)F)c1` gave a melting point of 87 to 89 °C. With `CCOC(=O)c1c2n(c3c(F)c(N4CCC(N(C)C)C4)c(F)cc3c1=O)C(C)S2` (centres undefined) the melting point was 165 to 168 °C. `CC(C)C(=O)Nc1cccc(N(CCO)CCO)c1` showed a melting point of 120 to 122 °C. Work on `COc1cc2c(cc1Nc1ncc(Cl)c(N[C@@H]3CCCC[C@H]3NS(C)(=O)=O)n1)CCN(CCNC(C)=O)CC2` yielded a melting point of 108 to 118 °C. Work on `Cc1cc(Nc2cccc(O)c2)c2c(cnn2C)n1` yielded a melting point of 264 to 265 °C. Work on `CNC(=O)NC(C)C(C)CC(=O)NS(=O)(=O)c1ccc(C)cc1` (centres undefined) yielded a melting point of 120 to 125 °C. With `O=C(Nc1cscc1S(=O)(=O)c1ccc(Cl)cc1)N[C@@H](Cc1ccc(NC(=O)c2c(Cl)cccc2Cl)cc1)C(=O)O` the melting point was 202 °C. In the case of `C=C(C)COc1ccc2c(C)cc(=O)oc2c1C(=O)C=Cc1cccnc1`, the melting point is reported as 110 to 112 °C. Compound `O=[N+]([O-])c1ccc2c(c1)Sc1cc(Br)ccc1N2` has a melting point of over 250 °C. Work on `ClCc1ccc(CCl)o1` yielded a melting point of 27 to 28 °C. Work on `CN(C[C@H](O)[C@@H](O)[C@H](O)[C@H](O)CO)C(=O)c1ccc2n1Cc1ccccc1N(C(=O)c1ccc(-c3cccc4ccccc34)nc1)C2` yielded a melting point of 165 to 167 °C. For `Cc1c(C#N)sc(N=Nc2c(NCCO)nc(NCCO)c(C#N)c2C)c1C#N`, the melting point was 268 to 269 °C. Work on `CC(C)(C)c1cc(C=O)c(O)cc1Cl` yielded a melting point of 38 to 39 °C. Work on `CCOCCn1c(N2CCN(CC)CC2)nc2ccccc21` yielded a melting point of 134 to 136 °C. With `COC(C)CN(C)CC=CC(=O)Nc1cc2c(Nc3ccc(F)c(Cl)c3)ncnc2cc1OCC1CC1` (centres undefined) the melting point was 123 to 125 °C. `c1ccc2sc(C3CCNCC3)cc2c1` showed a melting point of 82 to 84 °C. `C=CC(=O)NCCCCCCCCCCCCOc1ccccc1` showed a melting point of 69 to 71 °C. For `COc1ccc(-c2cccc(C(=O)NCCC#N)c2)c2cc(Cc3cccc(C(F)(F)F)c3)oc12`, the melting point was 126 to 127 °C. Compound `N#Cc1c(-c2ccc(Cl)cc2)[nH]c(Cl)c1Cl` has a melting point of 259 to 261 °C. `CC(Oc1ccc(-c2ccc(Cl)cc2)cc1)(C(=O)O)C(F)(F)F` (centres undefined) gave a melting point of 198 to 199 °C. Compound `Cc1nc(-c2ccc(-c3ccccc3S(=O)(=O)Nc3onc(C)c3C)cc2)co1` has a melting point of 90 to 100 °C. With `CSc1nn2c(Cl)cc(C)nc2c1S(=O)(=O)c1ccccc1` the melting point was 163 to 165 °C. `O=c1c2c(n(-c3cccc(Cl)c3)c3ncccc13)CCN(Cc1ccccc1)C2` showed a melting point of 157 to 161 °C. In the case of `OC1(c2cccc(Cl)c2)C2=NCCCN2c2ccccc21` (centres undefined), the melting point is reported as 186 to 187 °C. With `CCCc1cc(F)c2occ(C)c2c1O` the melting point was 53 to 54 °C. Work on `O=C(O)CNC(=O)CBr` yielded a melting point of 90 to 91 °C. `CCCCc1nc(SC)c(Br)n1Cc1ccc(-c2ccccc2S(=O)(=O)N=CN(C)C)cc1` gave a melting point of 158 °C. `CC/C=C\Cn1c(=O)sc2c(N)ncnc21` gave a melting point of 134 to 135 °C. With `CN(CCNc1ccnc2c(NC(=O)c3c(Cl)cccc3Cl)cccc12)C(=O)n1ccnc1` the melting point was 202 °C. Compound `CN(C)c1cccc(Oc2ncccc2C(=O)NCc2ccccc2Cl)c1` has a melting point of 85 to 87 °C. Work on `COc1c(OC2CCC(=O)CC2)ccnc1C` yielded a melting point of 56 to 57 °C. Work on `Nc1c(-c2ccc(Br)cc2)nc2ccc(Cl)cc2c1C(=O)O` yielded a melting point of 241 to 242 °C. With `COC(=O)C=CC(=O)N[C@@H](CO)c1ccccc1` the melting point was 75 to 77 °C. Work on `CC12CC(F)C3C(CCC4=CC(=O)CCC43C)C1CCC2=O` (centres undefined) yielded a melting point of 162 to 164 °C. Work on `CCCCc1nc(CO)c(C(=O)OC)n1Cc1ccc(-c2ccccc2C(=O)OC(C)(C)C)cc1` yielded a melting point of 99 °C.
